In PubChem BioAssay (NCI):
Several values for one entry are separate records, joined by “and”; a condition that tells them apart may be missing. Equal entries are not always repeated.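 A five-concentration, 48-hour dose response in 96-well plates underlies each endpoint, interpolated linearly between surrounding concentrations. Abbreviation: GI50, concentration required for 50% inhibition of growth. TGI: total growth inhibition.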

Key:
Experiment in all cases: inhibition of tumour cell growth, NCI panel, 48 h
[1] = test system: A549 NSCLC
[2] = test system: OVCAR-3 ovarian
[3] = test system: HCT-116 colon
[4] = test system: UACC-257 melanoma
[5] = test system: SK-MEL-28 melanoma
[6] = test system: SF-539 CNS
[7] = test system: HT29 colon
[8] = test system: SR leukemia
[9] = test system: NCI/ADR-RES ovarian

| SMILES | TGI [1] | TGI [2] | TGI [3] | TGI [4] | TGI [5] | TGI [6] | TGI [7] | GI50 [1] | GI50 [7] [µM] | GI50 [2] [µM] | GI50 [3] [µM] | GI50 [4] | GI50 [5] [µM] | GI50 [6] [µM] | TGI [8] [µM] | TGI [9] [µM] |
| --- | --- | --- | --- | --- | --- | --- | --- | --- | --- | --- | --- | --- | --- | --- | --- | --- |
| CCc1cc(Cc2ccc(C)c(NC(=O)C(=O)C3C(=O)NC(=O)NC3=O)c2CC)cc(C)c1NC(=O)C(=O)C1C(=O)NC(=O)NC1=O | > 100 µM | > 100 µM | > 100 µM | > 100 µM | > 100 µM | > 100 µM | – | – | – | – | – | – | – | – | – | – |
| O=C1C=Cc2ncccc2C1=O | > 67.6 µM | 46.9 µM | 31.1 µM | 35.1 µM | 48.1 µM | 40.5 µM | 43.4 µM | – | – | – | – | – | – | – | – | – |
| [CH3][Sn]1([CH3])[O]CC(COc2cc(Cl)c(Cl)cc2Cl)[O]1 (centres undefined) | > 100 µM | > 100 µM | > 100 µM | > 100 µM | > 100 µM | > 100 µM | > 100 µM | 83.6 µM | > 100 | 42.8 | 73.7 | 99 µM | > 100 | 24.7 | – | – |
| CC(C)(C)Sc1nnc(SC(C)(C)C)c2c(=O)[nH]nc(SC(C)(C)C)c12 | 17.9 µM | 22.6 µM | 15.9 µM | 26.7 µM | – | 22.6 µM | 19.1 µM | – | – | – | – | – | – | – | 19.1 | – |
| Cn1nc(-c2ccccc2)c(C(=O)/C=C/c2ccc(Cl)cc2)c(N2CCCC2)c1=O | 49.4 µM | – | 8.11 µM | – | 13.8 µM | 13.2 µM | 15.3 µM | – | – | – | – | – | – | – | – | – |
| CC1=CC(=O)NP(=O)(C23CC4CC(CC(C4)C2)C3)N1 (centres undefined) | – | > 100 µM | > 100 µM | > 100 µM | > 100 µM | > 100 µM | > 100 µM | – | – | – | – | – | – | – | > 100 | – |
| S=c1c2ccccc2c(=S)n2n1CC=CC2 | > 100 µM | > 100 µM | > 100 µM | > 100 µM | > 100 µM | > 100 µM | > 100 µM | – | – | – | – | – | – | – | – | – |
| c1ccc(-c2nnc3nn4c(-c5ccccc5)cnnc4c3c2-c2ccccc2)cc1 | > 100 µM | > 100 µM | > 100 µM | > 100 µM | > 100 µM | 99.5 µM | > 100 µM | – | – | – | – | – | – | – | > 100 | – |
| CCCCNC1=C(C(=O)OCC)/C(=N/NC(=O)c2ccccc2O)CO1 | > 100 µM | > 100 µM | > 100 µM | 14.2 µM | > 100 µM | > 100 µM | – | – | – | – | – | – | – | – | – | – |
| Cc1ccc2nc(NC(=O)C(=O)CC(=O)c3cccc4ccccc34)sc2c1 | > 100 µM | 49.6 µM | – | 82.2 µM | > 100 µM | 61.6 µM | > 100 µM | – | – | – | – | – | – | – | – | – |
| O=C(/C=C/C1C(=O)NC(=O)NC1=O)CC(=O)C(=O)Nc1cc(Cl)c(Cl)cc1Cl | > 100 µM | > 100 µM | > 100 µM | > 100 µM | > 100 µM | > 100 µM | > 100 µM | – | – | – | – | – | – | – | > 100 | – |
| O=c1[nH]cc(C(F)(C(F)(F)F)C(F)(F)F)c(=O)[nH]1 | > 100 µM | > 100 µM | > 100 µM | > 100 µM | > 100 µM | > 100 µM | > 100 µM | – | – | – | – | – | – | – | – | – |
| O=S1(=O)c2ccccc2N=C(c2ccccc2Cl)CC1c1ccc(F)cc1 (centres undefined) | 47.4 µM | 27.4 µM | 22.9 µM | 24.7 µM | 32.7 µM | 35.7 µM | – | – | – | – | – | – | – | – | – | – |
| COC(=O)C(=O)C(C(=O)C(=O)Nc1cc(Cl)c(Cl)cc1Cl)c1nc2ccc([N+](=O)[O-])cc2[nH]c1=O (centres undefined) | > 100 µM | – | > 100 µM | > 100 µM | > 100 µM | > 100 µM | – | – | – | – | – | – | – | – | > 100 | – |
| COC(=O)C(C(=O)C(N)=O)c1csc(-n2nc(-c3ccccc3)cc2-c2ccccc2)n1 (centres undefined) | > 31.6 µM | > 100 µM | > 31.6 µM | > 31.6 µM | > 31.6 µM | > 31.6 µM | > 100 µM | – | – | – | – | – | – | – | – | – |
| C/C(CC(=O)Nc1cccc([N+](=O)[O-])c1)=N\NC(=O)CC#N | > 100 µM | > 100 µM | > 100 µM | > 100 µM | > 100 µM | > 100 µM | > 100 µM | – | – | – | – | – | – | – | – | – |
| CC(=O)OC(=O)O/C=C\CCl | > 100 µM | > 100 µM | > 100 µM | > 100 µM | > 100 µM | > 100 µM | – | – | – | – | – | – | – | – | > 100 | – |
| CC(=O)[C-](C(C)=O)c1ccccc1.CC(=O)[C-](C(C)=O)c1ccccc1.CC(=O)[C-](C(C)=O)c1ccccc1.[Cl-].[Zr+4] | > 100 µM | > 100 µM | > 100 µM | > 100 µM | – | > 100 µM | > 100 µM | > 100 µM | > 100 | > 100 | > 100 | > 100 µM | – | 86.7 | – | – |
| Cc1c2ccncc2c(C)c2c1[nH]c1ccc(Cl)cc12 | 11.2 µM and 15.2 µM | 5.71 µM and 16.6 µM | 2.98 µM and 5.14 µM | 12 µM and 12.8 µM | 13.3 µM and 3.67 µM | 6.68 µM and 7.97 µM | 9.24 µM and 2.52 µM | 3.27 µM and 3.56 µM | 1.04 | 4.62 | – | 5.39 µM and 2.34 µM | 1.93 | 2.09 | – | 4.75 |
| CC(=O)NC(CCCN(Cc1ccccc1)C(=O)N(C)N=O)C(=O)NCc1ccccc1 (centres undefined) | > 100 µM | > 100 µM | > 100 µM | > 100 µM | > 100 µM | > 100 µM | > 100 µM | – | – | – | – | – | – | – | – | – |
